The target in assay [1] is Angiotensin II receptor (Homo sapiens) (UniProt P30556+P50052). Nature of the assay: Affinity towards angiotensin receptor was expressed as the ratio of Angiotensin II AT2 receptor over Angiotensin II AT1 receptor. The format is protein assay.
Assay [2] deals with Rattus norvegicus. The experiment in a line: Reduction of blood pressure by 30 mmHg in renal hypertensive rats by intravenous administration. The format is functional.
Assay [3] deals with Rattus norvegicus. Nature of the assay: Duration required to lower blood pressure by 30 mmHg in renal hypertensive rats at a dose of 3.0 mg/kg. The format is functional.
Assay [4] addresses T1, Type-2 angiotensin II receptor (Rattus norvegicus, UniProt P35351).
T1 sequence (P35351 whole entry): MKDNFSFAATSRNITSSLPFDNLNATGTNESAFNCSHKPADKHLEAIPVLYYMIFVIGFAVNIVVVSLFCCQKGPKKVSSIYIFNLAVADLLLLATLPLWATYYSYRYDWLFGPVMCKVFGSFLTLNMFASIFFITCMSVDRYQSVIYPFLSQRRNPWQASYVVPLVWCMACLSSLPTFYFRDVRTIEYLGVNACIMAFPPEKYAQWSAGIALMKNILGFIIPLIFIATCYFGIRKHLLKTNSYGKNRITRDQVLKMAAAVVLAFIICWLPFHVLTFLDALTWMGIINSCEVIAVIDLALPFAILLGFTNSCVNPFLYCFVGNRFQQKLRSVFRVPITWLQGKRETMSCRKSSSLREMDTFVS
Nature of the assay: Displacement of [125I]- Ang II from angiotensin II AT2 receptor in rat adrenal cortical microsomes. Also on record: species or system Microsome. A general note: In a radioligand displacement assay an active substance lowers the binding of a labelled ligand.

Assay [5] relates to Rattus norvegicus. Nature of the assay: Effective dose to lower blood pressure by 30 mmHg in renal hypertensive rats by peroral administration. The format is functional. The settings on record: po.
The target in assay [6] is T2, Angiotensin II receptor (AT-1) type-1 (Rattus norvegicus, UniProt P29089+P25095).
T2 sequence (P29089 whole entry): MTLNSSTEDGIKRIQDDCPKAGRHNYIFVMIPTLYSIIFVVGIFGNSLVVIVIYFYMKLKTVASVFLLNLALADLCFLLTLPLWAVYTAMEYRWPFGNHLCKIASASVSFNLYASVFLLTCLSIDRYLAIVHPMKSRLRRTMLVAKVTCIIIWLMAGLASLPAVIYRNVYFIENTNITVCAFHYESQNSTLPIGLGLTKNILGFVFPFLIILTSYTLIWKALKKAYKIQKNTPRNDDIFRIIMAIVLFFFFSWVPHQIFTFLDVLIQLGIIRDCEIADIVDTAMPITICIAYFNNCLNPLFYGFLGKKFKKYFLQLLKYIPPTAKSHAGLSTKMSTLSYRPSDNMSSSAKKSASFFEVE
T2 sequence (P25095 whole entry): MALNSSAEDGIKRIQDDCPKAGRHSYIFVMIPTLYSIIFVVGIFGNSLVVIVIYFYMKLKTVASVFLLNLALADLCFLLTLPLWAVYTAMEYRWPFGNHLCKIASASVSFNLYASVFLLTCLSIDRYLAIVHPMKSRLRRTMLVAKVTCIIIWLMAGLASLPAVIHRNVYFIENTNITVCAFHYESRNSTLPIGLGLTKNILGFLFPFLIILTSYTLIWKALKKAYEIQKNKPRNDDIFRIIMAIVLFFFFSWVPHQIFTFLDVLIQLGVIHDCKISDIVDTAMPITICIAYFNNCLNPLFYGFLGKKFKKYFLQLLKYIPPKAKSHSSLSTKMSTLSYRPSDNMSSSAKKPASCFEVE
The experiment in a line: Displacement of [125I]- Ang II from angiotensin II AT1 receptor in rat adrenal cortical microsomes. Further details: species or system Microsome.

For assay [7], the target named is T1, Type-2 angiotensin II receptor. The experiment in a line: Compound was tested for the inhibition of angiotensin II AT2 receptor by displacement of [125I]- Ang II to rat adrenal cortical microsomes.

The text below walks through data of ChEMBL document CHEMBL1150495, “Balanced angiotensin II receptor antagonists. I. The effects of biphenyl ortho-substitution on AT1/AT2 affinities” (Bioorg Med Chem Lett, 1994).

By IC50 is commonly meant the concentration at which inhibition is half-maximal. A lower IC50 goes with higher potency.

For the molecule `CCCCOC(=O)NS(=O)(=O)c1ccccc1-c1ccc(Cn2c(CCC)nc(CC)c2C(C)=O)c(F)c1`, the Ratio in assay [1] was determined as 3. Also, the ED30 in assay [2] worked out at 0.1 mg/kg; in assay [5] it was 0.48 mg/kg. The same molecule showed a Duration in assay [3] above 24 h. In addition, in assay [4], the IC50 is 3 nM.
Turning to `CCCc1nc(CC)c(C=O)n1Cc1ccc(-c2ccccc2-c2nn[nH]n2)cc1C`, the results for the concentration for half-maximal inhibition (IC50) in assay [6] and in assay [4] were 40 nM and 1000 nM, respectively. The molecule also displayed an ED30 in assay [2] of 1.4 mg/kg.
In the case of `CCCCOC(=O)NS(=O)(=O)c1ccccc1-c1ccc(Cn2c(CCC)nc(CC)c2C(=O)OC)c([N+](=O)[O-])c1`, the IC50 in assay [6] worked out at 7 nM; in assay [4], 20 nM.
For the molecule `CCCc1nc(CC)c(C=O)n1Cc1ccc(-c2ccccc2-c2nn[nH]n2)cc1F`, the figures for the IC50 in assay [6] and in assay [4] were 7 nM and 3000 nM, respectively. The molecule also gave an ED30 in assay [2] of 0.17 mg/kg.
Take `CCCCOC(=O)NS(=O)(=O)c1ccccc1-c1ccc(Cn2c(CCC)nc(CC)c2C=O)c(C)c1`: the IC50 in assay [6] was determined as 3 nM; in assay [4] it was 9 nM. For the same molecule, the values for the ED30 in assay [2] and in assay [5] were 0.23 mg/kg and 0.86 mg/kg, respectively.
Take `CCCc1nc(C(F)(F)C(F)(F)F)c(C(=O)O)n1Cc1ccc(-c2ccccc2-c2nn[nH]n2)cc1Br`: in assay [7], the IC50 worked out at 80 nM.
As for `CCCc1nc(CC)c(C=O)n1Cc1ccc(-c2ccccc2S(=O)(=O)NC(=O)c2ccccc2)cc1`, the half-inhibitory concentration (IC50) was 2.4 nM in assay [6] and 500 nM in assay [4].
As for `CCCCOC(=O)NS(=O)(=O)c1ccccc1-c1ccc(Cn2c(CCC)nc(CC)c2C(C)=O)c(Cl)c1`, the IC50 in assay [6] is 6 nM; in assay [4], 12 nM. The ED30 was 0.11 mg/kg in assay [2] and 0.96 mg/kg in assay [5].
Turning to `CCCc1nc(CC)c(C=O)n1Cc1ccc(-c2ccccc2-c2nn[nH]n2)cc1Br`, the figures for the IC50 in assay [6] and in assay [4] were 20 nM and 700 nM, respectively. The molecule also returned an ED30 in assay [2] of 1.05 mg/kg.
Regarding `CCCCOC(=O)NS(=O)(=O)c1ccccc1-c1ccc(Cn2c(CCC)nc(CC)c2C(=O)OC)c(C)c1`, the half-maximal inhibitory concentration (IC50) amounted to 3 nM in assay [6] and 10 nM in assay [4]. Also, the ED30 in assay [2] was 0.15 mg/kg; in assay [5] it was 0.56 mg/kg.
In the case of `CCCCOC(=O)NS(=O)(=O)c1ccccc1-c1ccc(Cn2c(CCC)nc(CC)c2C(=O)OC)cc1`, the IC50 in assay [6] came out at 2 nM; in assay [4], 40 nM.
In the case of `CCCc1nc(CC)c(C(=O)OC)n1Cc1ccc(-c2ccccc2S(=O)(=O)NC(=O)OCCC(C)C)cc1F`, the Ratio in assay [1] came out at 1. Further, the values for the ED30 in assay [2] and in assay [5] were 0.12 mg/kg and 0.67 mg/kg, respectively. Moreover, in assay [3], the Duration was above 24 h. For the same molecule, in assay [4], the IC50 turned out to be 1 nM.
As to `CCCCOC(=O)NS(=O)(=O)c1ccccc1-c1ccc(Cn2c(CCC)nc(CC)c2C(=O)OC)c(F)c1`, the IC50 in assay [6] came to 0.6 nM; in assay [4] it was 4 nM. Further, the values for the ED30 in assay [2] and in assay [5] were 0.11 mg/kg and below 0.3 mg/kg, respectively.
Take `CCCc1nc(C(F)(F)C(F)(F)F)c(C(=O)O)n1Cc1ccc(-c2ccccc2-c2nn[nH]n2)cc1`: the IC50 in assay [6] is 3 nM; in assay [4] it was above 10000 nM.
Take `CCCNC(=O)NS(=O)(=O)c1ccccc1-c1ccc(Cn2c(CCC)nc(SC)c2C(=O)O)cc1`: the results for the IC50 in assay [6] and in assay [4] were 0.3 nM and 775 nM, respectively.
With `CCCCOC(=O)NS(=O)(=O)c1ccccc1-c1ccc(Cn2c(CCC)nc(CC)c2C(C)=O)c(C)c1`, the IC50 was determined as 2 nM in assay [6] and 20 nM in assay [4]. Also, the values for the ED30 in assay [2] and in assay [5] were 0.24 mg/kg and 0.55 mg/kg, respectively.
Regarding `CCCc1nc(CC)c(C=O)n1Cc1ccc(-c2ccccc2-c2nn[nH]n2)cc1`, the IC50 was 2 nM in assay [6] and above 10000 nM in assay [4]. Besides, the ED30 in assay [2] is 0.04 mg/kg.
In the case of `CCCCOC(=O)NS(=O)(=O)c1ccccc1-c1ccc(Cn2c(CCC)nc(CC)c2C(C)=O)cc1`, the results for the IC50 in assay [6] and in assay [4] were 2 nM and 80 nM, respectively. The values for the ED30 in assay [2] and in assay [5] were 0.26 mg/kg and 0.25 mg/kg, respectively.
For the molecule `CCCCOC(=O)NS(=O)(=O)c1ccccc1-c1ccc(Cn2c(CCC)nc(CC)c2C(=O)OC)c(Cl)c1`, the Ratio in assay [1] came out at 2.3. For the same molecule, the ED30 stood at 0.51 mg/kg in assay [2] and 0.44 mg/kg in assay [5]. Besides, in assay [3], the Duration was above 24 h. In addition, the IC50 in assay [4] came to 7 nM.
Consider `CCCCOC(=O)NS(=O)(=O)c1ccccc1-c1ccc(Cn2c(CCC)nc(CC)c2C=O)cc1`, for which the IC50 stood at 2 nM in assay [6] and 10 nM in assay [4]. The ED30 in assay [2] is 0.23 mg/kg; in assay [5], 0.18 mg/kg.
As to `CCCc1nc(CC)c(C=O)n1Cc1ccc(-c2ccccc2-c2nn[nH]n2)cc1Cl`, the IC50 was determined as 10 nM in assay [6] and 500 nM in assay [4]. This molecule had an ED30 in assay [2] of 0.87 mg/kg.
`CCCCOC(=O)NS(=O)(=O)c1ccccc1-c1ccc(Cn2c(CCC)nc(CC)c2C(=O)OC)c(Br)c1`: the IC50 was determined as 2 nM in assay [6] and 20 nM in assay [4].
For the molecule `CCCCOC(=O)NS(=O)(=O)c1ccccc1-c1ccc(Cn2c(CCC)nc(CC)c2C=O)c(F)c1`, the IC50 in assay [6] came out at 0.7 nM; in assay [4] it was 2 nM. Moreover, the ED30 in assay [2] is 0.13 mg/kg; in assay [5], below 1 mg/kg.
